“Also recorded” adds a separate entry of the source.
Columns and labels:
Type in all cases: cell-based
cAMP [1] = test: Dual-emission ratio (FRET) imaging of Epac-based cAMP reporters (ICUE1 and targeted fusions) in HEK-293 cells; conditions: for increase in the ratio of cyan to yellow emissions (FRET response): HEK293 cells expressing ICUE1, 10 μM ISO, 50 μM FSK, 10 μM PGE1, 300 μM 8-pCPT-2′-O-Me-cAMP, average ± S.E.M; for increase in emission ratio of cyan to yellow upon cAMP elevations: ECFP/citrine reporters with truncated Epac2, HEK-293 cells
Method: Cell Culture. […] Cells were then transfected with FuGENE-6 transfection reagent (Roche) or calcium phosphate and allowed to grow for 12-24 hours before imaging.
Imaging. Cells were washed twice with Hanks' balanced salt solution buffer after 12- to 24-h incubation at 37° C. culture medium. Cells were maintained in buffer in the dark at room temperature with addition of isoproterenol (Aldrich), forskolin (Calbiochem), Prostaglandin E1 (PGE1) (Sigma), and 8-(4-chloro-phenylthio)-2′-O-methyl adenosine 3′,5′-monophosphate (8-pCPT-2′-O-Me-cAMP) (Axxora Biolog) as indicated. Cells were also treated with P-(4,5-dimethoxy-2-nitrobenzyl) adenosine 3′,5′-monophosphate (DMNB-cAMP) (Molecular Probe).
Cells were imaged on a Zeiss Axiovert 200M microscope with a cooled charge-coupled device camera MicroMAX BFT512 (Roper Scientific) controlled by METAFLUOR 6.2 software (Universal Imaging). Dual-emission ratio imaging used a 420DF20 excitation filter, a 450DRLP dichroic mirror and two emission filters (475DF40 for ECFP, 535DF25 for citrine) alternated by a filter changer Lambda 10-2 (Sutter Instruments). Exposure time was 100-500 ms and images were taken every 8-30 s. Fluorescent images were background-corrected by subtracting autofluorescence intensities of untransfected cells (or background with no cells) from the emission intensities of fluorescent cells expressing reporters. The ratios of cyan to yellow emissions were then calculated at different time points and normalized by dividing all ratios by the emission ratio just prior to stimulation therefore setting the basal emission ratio to 1.

cAMP [2] = test: 96-well live cell plate reading of HEK293 cells expressing ICUE3; conditions: for effect on ISO-stimulated response of ICUE3: PRO 10 μM
Method: Plate reading used a 420DF20 excitation filter and two emission filters (470DF40 for cyan and 535DF25 for yellow). A baseline was established in three cycles, each consisting of a full plate reading of yellow intensity, followed by a reading of cyan intensity. Cells were then treated with isoproterenol (ISO; Aldrich), forskolin (Calbiochem), H89, propranolol, and 3-isobutyl-1-methylxanthine (IBMX) as indicated. Readings were taken in six or twenty additional cycles. Each cycle lasted 60 to 145 sec. Baseline FRET ratios were calculated as the average ratio of yellow/cyan for each well before the addition of drug. FRET change was calculated as the percent increase of FRET ratio over baseline for each well during a given cycle. The FRET changes of all wells having undergone the same drug treatment were then averaged within each cycle, and that cycle was correlated with time.
Live cell plate reading. HEK293 cells were transfected with cDNA encoding ICUE reporters using calcium phosphate at 40% confluency and allowed to grow for 40 hours. Cells were then trypsinized and plated in a Costar 3603 96-well assay plate (Coming) at a density of 150,000 cells per well. After incubation for another 24 hours, cells were washed once with HBSS and left in 150 μl HBSS at 20-25° C. Fluorescence reading was taken on a FLUOstar OPTIMA fluorescence microplate reader (BMG Labtechnologies Inc.) using a 420DF20 excitation filter and two emission filters (470DF40 for cyan and […] for yellow). A baseline was established in three cycles, each consisting of a full plate reading of yellow intensity, followed by a reading of cyan intensity. Each cycle lasted between 64 and 145 seconds. Readings were taken in additional cycles. FRET change was calculated as the percent increase of emission ratios (cyan-to-yellow) over baseline for each well during a given cycle. To assess the efficacy of the assay, several statistical parameters were calculated, including Z factor, coefficient of variation, and signal-to-noise ratio (Zhang et al., J. Biomol. Screen. 4, 67-73, 1999).

cAMP [3] = test: High throughput 96-well plate assay using ICUE2 stable HEK293 cells; conditions: 1 μM ISO, 100 μM IBMX, 50 μM FSK
Method: HEK293 cells which stably express ICUE2 (“ICUE2 stable HEK293 cells”) were grown to confluency in 10 cm dishes in DMEM, 10% FBS, 1% penicillin/streptomycin, and 250 μg/ml G418. HEK-293 cells were transfected with cDNA encoding ICUE2 using calcium phosphate at 40% confluency and allowed to grow for 40 hours. Cells were removed from the dish using 0.05% trypsin, spun down, and replaced with fresh media. ICUE2 stable HEK293 cells were counted on a hemocytometer using trypan blue stain. One hundred fifty thousand (150,000) cells were plated per well on a 96-well clear bottom assay plate in a total of 0.2 ml of media per […] and allowed to double once. Media was removed, cells were washed with Hanks buffered salt solution (HBSS) and then covered with 0.05 ml of HBSS per well. In a separate sterile plate, appropriate drugs were added to each well containing HBSS for a total volume of 0.05 ml. […] A baseline was established in three cycles, each consisting of a full plate reading of yellow intensity, followed by a reading of cyan intensity. Cells were then treated with isoproterenol (ISO; […] Readings were taken in six or twenty additional cycles. […] Baseline FRET ratios were calculated as the average ratio of yellow/cyan for each well before the addition of drug. FRET change was calculated as the percent increase of FRET ratio over baseline for each well during a given cycle. The FRET changes of all wells having undergone the same drug treatment were then averaged within each cycle, and that cycle was correlated with time.

[4] = 50 μM FSK, 10 μM PRO, 10 μM H89
[5] = plasma membrane-targeted ICUE1, 10 μM PGE1
[6] = ICUE1, 10 μM propranolol added after isoproterenol response reached plateau

In the case of `CO[C@@H]1[C@@H]2OP(=O)(O)OC[C@H]2O[C@H]1n1c(Sc2ccc(Cl)cc2)nc2c(N)ncnc21` [8-pCPT-2′-O-Me-cAMP, 8-(4-chloro-phenylthio)-2′-O-methyl adenosine 3′,5′-monophosphate], the “increase in the ratio of cyan to yellow emissions (FRET response)” value (cAMP [1]) is reported as 12.8%±0.9 and the “time to produce a half-maximal increase in emission ratios (t1/2)” value (cAMP [1]; ICUE1, 300 μM) is reported as 10 to 15 min.

With `COc1cc(COP2(=O)OCC3OC(n4cnc5c(N)ncnc54)C(O)C3O2)c([N+](=O)[O-])cc1OC` (stereo not drawn) [DMNB-cAMP, P-(4,5-dimethoxy-2-nitrobenzyl) adenosine 3′,5′-monophosphate] the “increase of emission ratio after UV uncaging” value (cAMP [1]; ICUE1, 100 μM DMNB-cAMP for 3 minutes, UV flash of 5 seconds) was 4.7%±0.7 and the “time of emission ratio increase after UV uncaging” value (cAMP [1]; ICUE1, 100 μM DMNB-cAMP, UV flash of 5 seconds) was 15 to 30 s.

With `O=S(=O)(NCCNC/C=C/c1ccc(Br)cc1)c1cccc2cnccc12` [H89] the “effect on FSK-stimulated response of ICUE3” value (cAMP [2]; [4]) was “did not diminish the response of ICUE3; also recorded: appeared to increase the response amplitude”.

In the case of `CC(C)Cn1c(=O)n(C)c(=O)c2[nH]cnc21` [IBMX, 3-isobutyl-1-methylxanthine], the “character of ICUE2 response (in words)” value (cAMP [3]) is reported as “increased the amplitude and sustained the responses” and the “effect on ISO-stimulated response of ICUE3” value (cAMP [2]; 1 μM ISO, 100 μM IBMX) is reported as “sustained the response and increased its amplitude”.

`CCCCC[C@H](O)/C=C/[C@H]1[C@H](O)CC(=O)[C@@H]1CCCCCCC(=O)O` [PGE1, Prostaglandin E1] was tested, and the “increase in the ratio of cyan to yellow emissions (FRET response)” value (cAMP [1]) was 13.3%±0.9, the “FRET response in the nucleus” value (cAMP [1]; NLS-ICUE1, 10 μM PGE1) was 3.4%±0.4 and the “emission ratio increase at the plasma membrane” value (cAMP [1]; [5]) was 12.6%±0.9. For the same molecule, the “time of emission ratio increase at the plasma membrane” value (cAMP [1]; [5]) was 2 to 3 min.

With `CC(C)NCC(O)COc1cccc2ccccc12` (stereo not drawn) [propranolol] the “effect on isoproterenol-stimulated FRET response” value (cAMP [1]; ICUE1, HEK293 cells, propranolol present) was “prevented the isoproterenol-stimulated response”, the “time of full recovery of emission ratio” value (cAMP [1]; [6]) was 6 to 8 min and the “time of initial decrease in emission ratio of cyan to yellow” value (cAMP [1]; [6]) was 2 to 3 min. For the same molecule, the “Average percent FRET response ± standard deviation, 0 sec.” value (cAMP [2]; 0 sec., HEK293 cells expressing ICUE3, 1 μM ISO, 50 μM FSK, 10 μM PRO, 100 μM IBMX, 10 μM H89) was 7.61% ± 3.19%, the “effect on ISO-stimulated response of ICUE3” value (cAMP [2]; 1 μM ISO, 100 μM IBMX) was “inhibited” and the “effect on FSK-stimulated response of ICUE3” value (cAMP [2]; [4]) was “had no effect”. The “Average percent FRET response ± standard deviation, 145 sec.” value (cAMP [2]; 145 sec., HEK293 cells expressing ICUE3, 1 μM ISO, 50 μM FSK, 10 μM PRO, 100 μM IBMX, 10 μM H89) was 8.1% ± 1.38%, the “Average percent FRET response ± standard deviation, 290 sec.” value (cAMP [2]; 290 sec., HEK293 cells expressing ICUE3, 1 μM ISO, 50 μM FSK, 10 μM PRO, 100 μM IBMX, 10 μM H89) was 6.54% ± 1.37% and the “Average percent FRET response ± standard deviation, 435 sec.” value (cAMP [2]; 435 sec., HEK293 cells expressing ICUE3, 1 μM ISO, 50 μM FSK, 10 μM PRO, 100 μM IBMX, 10 μM H89) was 3.73% ± 0.911%. The “Average percent FRET response ± standard deviation, 580 sec.” value (cAMP [2]; 580 sec., HEK293 cells expressing ICUE3, 1 μM ISO, 50 μM FSK, 10 μM PRO, 100 μM IBMX, 10 μM H89) was 2.57% ± 1.33% and the “Average percent FRET response ± standard deviation, 725 sec.” value (cAMP [2]; 725 sec., HEK293 cells expressing ICUE3, 1 μM ISO, 50 μM FSK, 10 μM PRO, 100 μM IBMX, 10 μM H89) was 1.83% ± 1.06%.

B1: P350-A501: ECFP and citrine fused with Epac2 domain, amino acids 350-501 of SEQ ID NO:20 (protein, listed as Mus musculus)
chain: ELLHIKALSHLSTTVKRELAGVLIFESHAKGGTVLFNQGEEGTSWYIILKGSVNVVIYGKGVVCTLHEGDDFGKLALVNDAPRAASIVLREDNCHFLRVDKEDFNRILRDVEANTVRLKEHDQDVLVLEKVPAGNRAANQGNSQPQQKYTVM
modifications: fused between ECFP and citrine
In the case of B1, the “increase in emission ratio of cyan to yellow upon cAMP elevations” value (cAMP [1]) is reported as “did not show a cAMP-dependent FRET change”.

B2: T316-A501: ECFP/citrine reporter with Epac2 amino acids 316-501 of SEQ ID NO:20 (protein, listed as Mus musculus)
chain: MLLLSQMGPDAHMRMILRKPPGQRTVDDLEIIYDELLHIKALSHLSTTVKRELAGVLIFESHAKGGTVLFNQGEEGTSWYIILKGSVNVVIYGKGVVCTLHEGDDFGKLALVNDAPRAASIVLREDNCHFLRVDKEDFNRILRDVEANTVRLKEHDQDVLVLEKVPAGNRAANQGNSQPQQKYTVM
modifications: fused between ECFP and citrine
With B2 the “increase in emission ratio of cyan to yellow upon cAMP elevations” value (cAMP [1]) was 5%.

Source: patent US8236523B2, “Camp reporters and high throughput assays” (The Johns Hopkins University, priority 2004, dated 2012)
